Test results from BindingDB's records for doi:10.1016/0024-3205(94)00413-m (Sanofi Recherche, 1995).
pKi: −log10 of the molar value. Several values for one entry are separate records, joined by “and”; a condition that tells them apart may be missing. Equal entries are not always repeated.

What was measured:
Substance-P receptor = Substance-P receptor (Rattus norvegicus, UniProt P14600)
Substance-K receptor [1] = biological target: T1, Substance-K receptor (Cavia porcellus, UniProt Q64077)
T1 sequence (Q64077 whole entry): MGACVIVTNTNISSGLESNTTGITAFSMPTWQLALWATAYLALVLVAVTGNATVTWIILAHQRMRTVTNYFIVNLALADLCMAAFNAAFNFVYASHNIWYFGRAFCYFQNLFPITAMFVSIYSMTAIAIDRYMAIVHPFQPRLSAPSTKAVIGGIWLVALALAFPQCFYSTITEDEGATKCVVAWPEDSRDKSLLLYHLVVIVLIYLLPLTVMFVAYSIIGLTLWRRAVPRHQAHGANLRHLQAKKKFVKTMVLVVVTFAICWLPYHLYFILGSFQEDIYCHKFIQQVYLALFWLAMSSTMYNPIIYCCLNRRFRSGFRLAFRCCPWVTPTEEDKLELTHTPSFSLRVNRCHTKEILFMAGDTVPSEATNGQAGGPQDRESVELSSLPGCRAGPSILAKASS

Substance-K receptor [2] = biological target: T2, Substance-K receptor (Mesocricetus auratus, UniProt P51144)
T2 sequence (P51144 whole entry): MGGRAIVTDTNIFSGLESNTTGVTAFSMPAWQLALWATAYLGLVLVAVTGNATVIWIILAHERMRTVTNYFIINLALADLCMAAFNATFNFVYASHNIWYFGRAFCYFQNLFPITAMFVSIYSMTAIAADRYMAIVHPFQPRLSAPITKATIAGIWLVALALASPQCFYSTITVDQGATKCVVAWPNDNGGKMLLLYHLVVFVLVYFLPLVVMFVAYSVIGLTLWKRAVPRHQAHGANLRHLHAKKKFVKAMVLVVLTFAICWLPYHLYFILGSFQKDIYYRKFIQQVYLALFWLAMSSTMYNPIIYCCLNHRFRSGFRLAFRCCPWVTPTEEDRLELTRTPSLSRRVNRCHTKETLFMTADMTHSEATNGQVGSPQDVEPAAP

Substance-K receptor [3] = biological target: T3, Substance-K receptor (Rattus norvegicus, UniProt P16610)
T3 sequence (P16610 whole entry): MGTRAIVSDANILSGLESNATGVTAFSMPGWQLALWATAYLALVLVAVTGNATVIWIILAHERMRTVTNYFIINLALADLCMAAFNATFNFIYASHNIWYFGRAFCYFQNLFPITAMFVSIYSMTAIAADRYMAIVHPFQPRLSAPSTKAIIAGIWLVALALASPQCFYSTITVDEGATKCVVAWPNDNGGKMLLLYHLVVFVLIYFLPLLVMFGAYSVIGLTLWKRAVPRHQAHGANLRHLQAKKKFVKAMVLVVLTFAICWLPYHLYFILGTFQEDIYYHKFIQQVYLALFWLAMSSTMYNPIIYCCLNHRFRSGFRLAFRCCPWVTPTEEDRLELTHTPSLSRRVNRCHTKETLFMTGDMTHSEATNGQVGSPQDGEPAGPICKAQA

Chain of Substance-P receptor (P14600 whole entry): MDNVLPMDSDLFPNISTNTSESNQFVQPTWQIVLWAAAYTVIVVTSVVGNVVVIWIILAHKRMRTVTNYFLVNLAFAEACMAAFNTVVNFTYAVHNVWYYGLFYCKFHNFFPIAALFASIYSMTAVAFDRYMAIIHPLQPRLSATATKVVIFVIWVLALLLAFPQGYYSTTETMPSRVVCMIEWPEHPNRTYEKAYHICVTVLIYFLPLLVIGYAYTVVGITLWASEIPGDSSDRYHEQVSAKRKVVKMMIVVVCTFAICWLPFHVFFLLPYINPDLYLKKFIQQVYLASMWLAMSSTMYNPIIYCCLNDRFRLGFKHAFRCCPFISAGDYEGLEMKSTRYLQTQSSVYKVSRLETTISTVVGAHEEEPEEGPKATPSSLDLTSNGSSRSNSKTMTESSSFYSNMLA

pKi (Substance-P receptor): 5.70
pKi (Substance-K receptor [1]): 7.14 and 6.46
pKi (Substance-K receptor [2]): 5.70
pKi (Substance-K receptor [3]): 7.00 and 6.61
Compound: CC(=O)N(C)C1(c2ccccc2)CCN(CCCC2(c3ccc(Cl)c(Cl)c3)CCCN(C(=O)c3ccccc3)C2)CC1 (centres undefined) [SR 142806]
